Experimental data taken from article PMC4890124, “Antimicrobial activity, improved cell selectivity and mode of action of short PMAP-36-derived peptides against bacteria and Candida” (Scientific Reports, 2016).
Converted amounts (≈) assume the structure as drawn. Where two headings read alike, the source gives them in different places. Marks after values point to notes of the source that are not given here. Peptide text beside a SMILES is read from it.

How the values were obtained:
[1] = test system: Bacillus subtilis CMCC 63501; format: cell-based
Procedure: (§1) The peptide antibacterial activity was determined against both gram-positive and gram-negative bacteria strains, including Escherichia coli ATCC 25922, Escherichia coli UB1005, Salmonella enterica serovar typhimurium C77-31, Staphylococcus aureus ATCC 29213, Staphylococcus aureus ATCC 25923, Bacillus subtilis CMCC 63501, and Staphylococcus epidermidis ATCC 12228. Clinically isolated Escherichia coli EC183 was provided by the 4th Affiliated Hospital of Harbin Medical University. MIC of the peptides was measured using a modified version of the National Committee for Clinical Laboratory Standards (NCCLS) broth microdilution method as described previously. The bacterial strains were inoculated and grown to mid-log phase in fresh Mueller-Hinton broth (MHB) at 37 °C. Bacterial inoculum suspensions were prepared at a final concentration of approximately 1 × 10^5 CFU/ml. Peptides were 2-fold serially diluted to make different concentrations, from 0.5 to 256 μM. Equal volumes of inoculum suspensions were then added to each well of a sterile 96-well plate with different concentrations of peptides, and the plate was incubated for 18 h at 37 °C. Broth with or without bacteria was employed as the positive control or the negative control, respectively. MIC was defined as the lowest concentration of peptides that prevented visible turbidity by visual inspection. […] After overnight incubation at 37 °C, MBC was defined as the lowest concentration of peptides that killed at least 99.9% of the initial inoculums. Experiments were performed in triplicate with three biological replicates.

[2] = test system: Clinically isolated Escherichia coli EC183; format: cell-based
Procedure: as §1

[3] = test system: Escherichia coli ATCC 25922; format: cell-based
Procedure: as §1

[4] = test system: Escherichia coli UB1005; format: cell-based
Procedure: as §1

[5] = test system: Salmonella enterica serovar typhimurium C77-31; format: cell-based; details: three independent experiments; for MBC S. typhi C77-31: lowest concentration killing at least 99.9% of initial inoculum
Procedure: as §1

[6] = test system: Staphylococcus aureus ATCC 25923; format: cell-based; details: ATCC 25923, 18 h
Procedure: as §1

[7] = test system: Staphylococcus aureus ATCC 29213; format: cell-based
Procedure: as §1

[8] = test system: Staphylococcus epidermidis ATCC 12228; format: cell-based; details: ATCC 12228, 18 h
Procedure: as §1

[9] = test system: Candida albicans CGMCC 2.2086; test: microbe, parasite or virus in culture; format: cell-based
Excerpt: (§2) The antifungal activities were monitored in RPMI-1640 broth medium by a 2-fold microdilution assay according to the Clinical and Laboratory Standards Institute (CLSI) methods. The Candida albicans CGMCC 2.2086, Candida tropicalis CGMCC 2.1975, and Candida krusei CGMCC 2.1857 fungal strains were purchased from the China General Microbiological Culture Collection Center (CGMCC, Beijing, China). Clinically isolated Candida albicans CA2761 was provided by the 4th Affiliated Hospital of Harbin Medical University. Briefly, fungal strains were cultured on YPD agar plates (1% peptone, 0.5% yeast extract, 1% glucose and 2% agar) at 28 °C to prepare Candida suspensions with a turbidity of a 0.5 McFarland standard. A total of 50 μl inoculum cell suspension diluted in RPMI-1640 broth medium was added to an equal volume of peptide solution to achieve a final peptide concentrations ranging from 0.25 μM to 128 μM in a 96-well plate. Pure broth alone or with inoculum suspensions was used as the negative control or the positive control, respectively. The plate was incubated at 28 °C for 48 h. MIC was considered the lowest concentration at which no fungal growth was visually observed under experimental conditions. […] After 48 h incubation at 28 °C, MFC was defined as the lowest concentration of peptides that killed at least 99.9% of the initial inoculums. Experiments were performed in triplicate with three biological replicates.

[10] = test system: Candida krusei CGMCC 2.1857; test: microbe, parasite or virus in culture; format: cell-based
Excerpt: as §2

[11] = test system: Candida tropicalis CGMCC 2.1975; test: microbe, parasite or virus in culture; format: cell-based
Excerpt: as §2

[12] = test system: C. albicans CA276 (clinical isolate); test: microbe, parasite or virus in culture; format: cell-based, Candida albicans
Excerpt: as §2

[13] = test system: fungi (four Candida strains); test: Geometric mean MIC and selectivity index, panel of fungi; format: cell-based; details: geometric mean of the MIC values against the fungi of Table 3
Excerpt: The antifungal activities were monitored in RPMI-1640 broth medium by a 2-fold microdilution assay according to the Clinical and Laboratory Standards Institute (CLSI) methods. The Candida albicans CGMCC 2.2086, Candida tropicalis CGMCC 2.1975, and Candida krusei CGMCC 2.1857 fungal strains were purchased from the China General Microbiological Culture Collection Center (CGMCC, Beijing, China). Clinically isolated Candida albicans CA2761 was provided by the 4th Affiliated Hospital of Harbin Medical University. Briefly, fungal strains were cultured on YPD agar plates (1% peptone, 0.5% yeast extract, 1% glucose and 2% agar) at 28 °C to prepare Candida suspensions with a turbidity of a 0.5 McFarland standard. A total of 50 μl inoculum cell suspension diluted in RPMI-1640 broth medium was added to an equal volume of peptide solution to achieve a final peptide concentrations ranging from 0.25 μM to 128 μM in a 96-well plate. Pure broth alone or with inoculum suspensions was used as the negative control or the positive control, respectively. The plate was incubated at 28 °C for 48 h. MIC was considered the lowest concentration at which no fungal growth was visually observed under experimental conditions. […]
SI values were determined by the ratio of MHC to GM, indicating the specificity of peptides towards pathogens and eukaryotic cells. […]

[14] = test system: Escherichia coli ATCC 25922; details: values marked c, determined as previously described; cited from earlier work
Excerpt: Table 2 MIC and MBC of the peptides against bacteria. | column: MIC ^a (MBC ^b) (μM) / Gram-negative bacteria / E. coli 25922

[15] = test system: Escherichia coli UB1005; details: values marked c, determined as previously described; cited from earlier work
Excerpt: Table 2 MIC and MBC of the peptides against bacteria. | column: MIC ^a (MBC ^b) (μM) / Gram-negative bacteria / E. coli 1005

[16] = test system: Salmonella enterica serovar typhimurium C77-31; details: values marked c, determined as previously described; cited from earlier work
Excerpt: Table 2 MIC and MBC of the peptides against bacteria. | column: MIC ^a (MBC ^b) (μM) / Gram-negative bacteria / S. typhi C77-31

[17] = test system: Staphylococcus aureus ATCC 29213; details: values marked c, determined as previously described; cited from earlier work
Excerpt: Table 2 MIC and MBC of the peptides against bacteria. | column: MIC ^a (MBC ^b) (μM) / Gram-positive bacteria / S. aureus 29213

[18] = test system: Staphylococcus aureus ATCC 25923; details: values marked c, determined as previously described; cited from earlier work
Excerpt: Table 2 MIC and MBC of the peptides against bacteria. | column: MIC ^a (MBC ^b) (μM) / Gram-positive bacteria / S. aureus 25923

[19] = test system: Staphylococcus epidermidis ATCC 12228; details: values marked c, determined as previously described; cited from earlier work
Excerpt: Table 2 MIC and MBC of the peptides against bacteria. | column: MIC ^a (MBC ^b) (μM) / Gram-positive bacteria / S. epidermidis 12228

[20] = Clinically isolated EC183, 18 h
[21] = lowest concentration killing at least 99.9% of initial inoculum, three independent experiments
[22] = CLSI 2-fold microdilution, RPMI-1640, 28 °C for 48 h, visual, three independent experiments
[23] = lowest concentration killing at least 99.9% of initial inoculum, YPD agar, 48 h at 28 °C, three independent experiments

SMILES: CC[C@H](C)[C@H](NC(=O)[C@H](Cc1c[nH]c2ccccc12)NC(=O)[C@H](CCCCN)NC(=O)[C@H](CC(C)C)NC(=O)[C@@H](NC(=O)[C@H](CCCCN)NC(=O)CNC(=O)[C@@H](NC(=O)[C@H](CCCCN)NC(=O)[C@H](CCCCN)NC(=O)[C@H](CC(C)C)NC(=O)[C@H](CCCNC(=N)N)NC(=O)[C@H](CCCCN)NC(=O)[C@H](CCCNC(=N)N)NC(=O)[C@@H](N)[C@@H](C)O)[C@@H](C)CC)C(C)C)C(N)=O [TI15] (H-TRKRLKKIGKVLKWI-NH2)
- MBC B. subtilis 63501 ([1]; CMCC 63501, 18 h): 4 µM (≈ 7.47 µg/mL)
- MIC B. subtilis 63501 ([1]; CMCC 63501, 18 h): 2 µM (≈ 3.73 µg/mL)
- MBC E. coli EC183 [2, 20]: 4 µM (≈ 7.47 µg/mL)
- MIC E. coli EC183 [2, 20]: 2 µM (≈ 3.73 µg/mL)
- MBC E. coli 25922 ([3]; ATCC 25922, 18 h): 16 µM (≈ 29.9 µg/mL)
- MIC E. coli 25922 ([3]; ATCC 25922, 18 h): 8 µM (≈ 14.9 µg/mL)
- MBC E. coli 1005 ([4]; UB1005, 18 h): 8 µM (≈ 14.9 µg/mL)
- MIC E. coli 1005 ([4]; UB1005, 18 h): 4 µM (≈ 7.47 µg/mL)
- MIC S. typhi C77-31 ([5]; broth microdilution, MHB, ~1 × 10^5 CFU/ml, 18 h at 37 °C, visual): 8 µM (≈ 14.9 µg/mL)
- MBC S. typhi C77-31 [5]: 32 µM (≈ 59.7 µg/mL)
- MBC S. aureus 25923 [6]: 128 µM (≈ 239 µg/mL)
- MIC S. aureus 25923 [6]: 32 µM (≈ 59.7 µg/mL)
- MBC S. aureus 29213 ([7]; ATCC 29213, 18 h): 128 µM (≈ 239 µg/mL)
- MIC S. aureus 29213 ([7]; ATCC 29213, 18 h): 32 µM (≈ 59.7 µg/mL)
- MBC S. epidermidis 12228 [8]: 64 µM (≈ 119 µg/mL)
- MIC S. epidermidis 12228 [8]: 32 µM (≈ 59.7 µg/mL)
- MFC C. albicans 2.2086 ([9]; CGMCC 2.2086, 48 h): 64 µM (≈ 119 µg/mL)
- MIC C. albicans 2.2086 ([9]; CGMCC 2.2086, 48 h): 64 µM (≈ 119 µg/mL)
- MFC ([10]; CGMCC 2.1857, 48 h, read-out: MFC C. krusei 2.1857): 16 µM (≈ 29.9 µg/mL)
- MIC ([10]; CGMCC 2.1857, 48 h, read-out: MIC C. krusei 2.1857): 8 µM (≈ 14.9 µg/mL)
- MFC ([11]; CGMCC 2.1975, 48 h, read-out: MFC C. tropicalis 2.1975): 4 µM (≈ 7.47 µg/mL)
- MIC ([11]; CGMCC 2.1975, 48 h, read-out: MIC C. tropicalis 2.1975): 2 µM (≈ 3.73 µg/mL)
- MFC C. albicans CA276 ([12]; CA276 (clinical isolate, 48 h)): 128 µM (≈ 239 µg/mL)
- MIC C. albicans CA276 ([12]; CA276 (clinical isolate, 48 h)): 128 µM (≈ 239 µg/mL)

SMILES: CC[C@H](C)[C@H](NC(=O)CN)C(=O)NCC(=O)N[C@@H](C)C(=O)N[C@H](C(=O)N[C@@H](CC(C)C)C(=O)N[C@@H](CCCCN)C(=O)N[C@H](C(=O)N[C@@H](CC(C)C)C(=O)N[C@H](C(=O)N[C@H](C(=O)NCC(=O)N[C@@H](CC(C)C)C(=O)N1CCC[C@H]1C(=O)N[C@@H](C)C(=O)N[C@@H](CC(C)C)C(=O)N[C@H](C(=O)N[C@@H](CO)C(=O)N[C@@H](Cc1c[nH]c2ccccc12)C(=O)N[C@H](C(=O)N[C@@H](CCCCN)C(=O)N[C@@H](CCCNC(=N)N)C(=O)N[C@@H](CCCCN)C(=O)N[C@@H](CCCNC(=N)N)C(=O)N[C@@H](CCC(N)=O)C(=O)N[C@@H](CCC(N)=O)C(N)=O)[C@@H](C)CC)[C@@H](C)CC)[C@@H](C)O)[C@@H](C)O)C(C)C)C(C)C [melittin, reference compound]
- MBC B. subtilis 63501 [1, 21]: 2 µM (≈ 5.69 µg/mL)
- MIC E. coli EC183 ([2]; broth microdilution, MHB, ~1 × 10^5 CFU/ml, 18 h at 37 °C, visual, three independent experiments): 2 µM (≈ 5.69 µg/mL)
- MBC E. coli EC183 [2, 21]: 2 µM (≈ 5.69 µg/mL)
- MBC E. coli 25922 ([3]; lowest concentration killing at least 99.9% of initial inoculum, plated on MHA after MIC incubation, three independent experiments): 4 µM (≈ 11.4 µg/mL)
- MBC E. coli 1005 [4, 21]: 4 µM (≈ 11.4 µg/mL)
- MBC S. typhi C77-31 [5]: 2^c (2) μM
- MBC S. aureus 29213 [7, 21]: 16 µM (≈ 45.5 µg/mL)
- MIC [9, 22]: 4 µM (≈ 11.4 µg/mL)
- MFC [9, 23]: 8 µM (≈ 22.8 µg/mL)
- MIC [10, 22]: 2 µM (≈ 5.69 µg/mL)
- MFC [10, 23]: 4 µM (≈ 11.4 µg/mL)
- MIC C. tropicalis 2.1975 [11, 22]: 2 µM (≈ 5.69 µg/mL)
- MFC C. tropicalis 2.1975 [11, 23]: 2 µM (≈ 5.69 µg/mL)
- MIC [12, 22]: 8 µM (≈ 22.8 µg/mL)
- MFC [12, 23]: 16 µM (≈ 45.5 µg/mL)
- GM (geometric mean of MIC values) Fungi [13]: 3.36 µM
- MIC E. coli 25922 [14]: 2 µM (≈ 5.69 µg/mL)
- MIC E. coli 1005 [15]: 2 µM (≈ 5.69 µg/mL)
- MIC S. typhi C77-31 [16]: 2^c (2) μM
- MIC S. aureus 29213 [17]: 8 µM (≈ 22.8 µg/mL)
- MIC S. aureus 25923 [18]: 8^c (8) μM
- MIC S. epidermidis 12228 [19]: 0.5 µM (≈ 1.42 µg/mL)
